# Experimental data as given in US6376666B1 (Nauchno-Issledovatelsky Institut Farmakologii Rossiiskoi …, priority 1994, dated 2002).
# Tests used:
# cats = assay: hemodynamics and activity of intact heart in cats under anesthesia; format: in vivo; conditions: for Cardiac volume, change from basal level / Heart rate, change from basal level / Mean blood flow accelaration (aortic), change from basal level / Mean blood pressure, change from basal level / Stroke volume, change from basal level: cats
# Method: The effects of compounds on the hemodynamics and activity of intact heart were studied in cats under anesthesia. The experiments were carried out under conditions of open chest. The phase curve of aortic blood flow was the main index of cardiac activity. The compounds were administered i.v. in physiological solution. The t-Student' test was used to estimate the statistical significance.
# aconitine arrhythmia = assay: animal or person; format: in vivo, rats
# Method: Aconitine arrhythmia. The aconitine arrhythmia was induced in concious rats weighing 180-200 g by the injection in tail vein of the aconitine sulfate solution at dose range of […]. […] The tested compounds were administered i.v. 3 min prior aconitine injection. The ED50 value was calculated according to Litchfield's method.
# C57B1/6 mice = assay: open-field test, C57B1/6 mice (active type of emotional-stress reaction); format: in vivo; conditions: i.p., doses that activate Balb/c mice
# Method in brief: (§1)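 Male mice, 20-22 g, dosed i.p. in water 30 min before a 3-min open-field test after 1 min in darkness; peripheral, central, rearing and total activity plus defecations recorded; Student t-test. Anxiolysis read as Balb/c activation, sedation as C57B1/6 inhibition.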
# Balb/c mice = assay: open-field test, Balb/c mice (passive type of emotional-stress reaction); format: in vivo; set-up: key to Total activity: sum of all locomotor activity counts (crossings + rearings) in 3 min
# Method in brief: as §1
# [1] = 0.5 mg/kg i.v., after injection
# [2] = 1.0 mg/kg i.v., after injection
# [3] = 0.1 mg/kg i.p., M ± mx, 0.1 mg/kg
# [4] = 1.0 mg/kg i.p., M ± mx, 1 mg/kg
# [5] = 10.0 mg/kg i.p., M ± mx, 10 mg/kg
structure (smiles),measurement,setting,value
"CCOc1ccc2nc(SCCN(CC)CC)[nH]c2c1 [Compound IX, 2-[2-(Diethylamino)ethylthio]-5-ethoxybenz-imidazole]","effect on contractile function of heart, in words","cats; cats i.v., same doses as bradycardia",slightly enhanced the contractility of myocardium
same,duration of bradycardia after administration,"cats; cats i.v., VIII 1,0, IX 0,5 and 1,0, XX 1,0 and 2,0 mg/kg",30 min
same,"effect on heart rate, in words","cats; cats i.v., VIII 1,0, IX 0,5 and 1,0, XX 1,0 and 2,0 mg/kg, XXIII 1.0, verapamil 0.5 mg/kg",expressed bradycardia
same,"Cardiac volume, change from basal level","cats; 0.5 mg/kg i.v., after 2 min",−3.5 ± 6.0%
same,"Heart rate, change from basal level","cats; 0.5 mg/kg i.v., after 2 min",−11.6 ± 2.8 %
same,"Mean blood flow accelaration (aortic), change from basal level","cats; 0.5 mg/kg i.v., after 2 min",+11.0 ± 8.8%
same,"Mean blood pressure, change from basal level","cats; 0.5 mg/kg i.v., after 2 min",+4.4 ± 4.7%
same,"Stroke volume, change from basal level","cats; 0.5 mg/kg i.v., after 2 min",+9.4 ± 6.5%
same,"Cardiac volume, change from basal level","cats; 0.5 mg/kg i.v., after 5 min",−1.7 ± 4.8%
same,"Mean blood flow accelaration (aortic), change from basal level","cats; 0.5 mg/kg i.v., after 5 min",+0.6 ± 4.9%
same,"Mean blood pressure, change from basal level","cats; 0.5 mg/kg i.v., after 5 min",−5.4 ± 2.3%
same,"Stroke volume, change from basal level","cats; 0.5 mg/kg i.v., after 5 min",+5.6 ± 5.6%
same,"Cardiac volume, change from basal level","cats; 0.5 mg/kg i.v., after 10 min",−4.2± 2.1%
same,"Heart rate, change from basal level","cats; 0.5 mg/kg i.v., after 10 min",−7.3 ± 1.6 %
same,"Mean blood flow accelaration (aortic), change from basal level","cats; 0.5 mg/kg i.v., after 10 min",+3.0 ± 4.0%
same,"Mean blood pressure, change from basal level","cats; 0.5 mg/kg i.v., after 10 min",−1.2 ± 3.6%
same,"Stroke volume, change from basal level","cats; 0.5 mg/kg i.v., after 10 min",+3.6 ± 3.0%
same,"Cardiac volume, change from basal level","cats; 0.5 mg/kg i.v., after 20 min",−6.1 ± 3.4%
same,"Heart rate, change from basal level","cats; 0.5 mg/kg i.v., after 20 min",−4.5 ± 2.2%
same,"Mean blood flow accelaration (aortic), change from basal level","cats; 0.5 mg/kg i.v., after 20 min",+5.6 ± 5.1%
same,"Mean blood pressure, change from basal level","cats; 0.5 mg/kg i.v., after 20 min",−4.1 ± 4.8%
same,"Stroke volume, change from basal level","cats; 0.5 mg/kg i.v., after 20 min",−0.7 ± 4.0%
same,"Cardiac volume, change from basal level","cats; 0.5 mg/kg i.v., after 30 min",−2.8 ± 7.8%
same,"Heart rate, change from basal level","cats; 0.5 mg/kg i.v., after 30 min",−5.3 ± 2.3%
same,"Mean blood flow accelaration (aortic), change from basal level","cats; 0.5 mg/kg i.v., after 30 min",+1.8 ± 5.8%
same,"Mean blood pressure, change from basal level","cats; 0.5 mg/kg i.v., after 30 min",−4.9 ± 6.5%
same,"Stroke volume, change from basal level","cats; 0.5 mg/kg i.v., after 30 min",+1.8 ± 9.3%
same,"Cardiac volume, change from basal level",cats; [1],+6.5 ± 2.8%
same,"Heart rate, change from basal level",cats; [1],−8.0 ± 3.5%
same,"Mean blood flow accelaration (aortic), change from basal level",cats; [1],+8.8 ± 5.8%
same,"Mean blood pressure, change from basal level",cats; [1],−2.1 ± 3.0%
same,"Stroke volume, change from basal level",cats; [1],+17.0 ± 5.5 %
same,"Cardiac volume, change from basal level","cats; 1.0 mg/kg i.v., after 2 min",+2.2 ± 3.5%
same,"Heart rate, change from basal level","cats; 1.0 mg/kg i.v., after 2 min",−14.1 ± 2.1 %
same,"Mean blood flow accelaration (aortic), change from basal level","cats; 1.0 mg/kg i.v., after 2 min",± 8.6 +3.8%
same,"Mean blood pressure, change from basal level","cats; 1.0 mg/kg i.v., after 2 min",+0.6 ± 2.7%
same,"Stroke volume, change from basal level","cats; 1.0 mg/kg i.v., after 2 min",+19.3 ± 4.6 %
same,"Cardiac volume, change from basal level","cats; 1.0 mg/kg i.v., after 5 min",+1.7 ± 6.8%
same,"Heart rate, change from basal level","cats; 1.0 mg/kg i.v., after 5 min",−10.6 ± 1.5 %
same,"Mean blood flow accelaration (aortic), change from basal level","cats; 1.0 mg/kg i.v., after 5 min",+13.6 ± 5.7%
same,"Mean blood pressure, change from basal level","cats; 1.0 mg/kg i.v., after 5 min",−3.8 ± 3.4%
same,"Stroke volume, change from basal level","cats; 1.0 mg/kg i.v., after 5 min",+13.8 ± 7.8%
same,"Cardiac volume, change from basal level","cats; 1.0 mg/kg i.v., after 10 min",−1.3 ± 6.8%
same,"Heart rate, change from basal level","cats; 1.0 mg/kg i.v., after 10 min",−7.1 ± 1.0 %
same,"Mean blood flow accelaration (aortic), change from basal level","cats; 1.0 mg/kg i.v., after 10 min",+9.6 ± 3.9 %
same,"Mean blood pressure, change from basal level","cats; 1.0 mg/kg i.v., after 10 min",−6.8 ± 2.5 %
same,"Stroke volume, change from basal level","cats; 1.0 mg/kg i.v., after 10 min",+5.9 ± 6.3%
same,"Cardiac volume, change from basal level","cats; 1.0 mg/kg i.v., after 20 min",−0.2 ± 3.8%
same,"Heart rate, change from basal level","cats; 1.0 mg/kg i.v., after 20 min",−4.2 ± 1.9%
same,"Mean blood flow accelaration (aortic), change from basal level","cats; 1.0 mg/kg i.v., after 20 min",+13.1 ± 5.0 %
same,"Mean blood pressure, change from basal level","cats; 1.0 mg/kg i.v., after 20 min",−1.9 ± 2.9%
same,"Stroke volume, change from basal level","cats; 1.0 mg/kg i.v., after 20 min",+4.4 ± 4.5%
same,"Cardiac volume, change from basal level","cats; 1.0 mg/kg i.v., after 30 min",−2.5 ± 5.1%
same,"Heart rate, change from basal level","cats; 1.0 mg/kg i.v., after 30 min",−2.3 ± 3.5%
same,"Mean blood flow accelaration (aortic), change from basal level","cats; 1.0 mg/kg i.v., after 30 min",+3.9 ± 2.0%
same,"Mean blood pressure, change from basal level","cats; 1.0 mg/kg i.v., after 30 min",−2.7 ± 2.9%
same,"Stroke volume, change from basal level","cats; 1.0 mg/kg i.v., after 30 min",+0.7 ± 6.7%
same,"Cardiac volume, change from basal level",cats; [2],+17.6 ± 8.2%
same,"Heart rate, change from basal level",cats; [2],−15.4 ± 2.7 %
same,"Mean blood flow accelaration (aortic), change from basal level",cats; [2],+14.8 ± 8.8%
same,"Mean blood pressure, change from basal level",cats; [2],−1.6 ± 7.3%
same,"Stroke volume, change from basal level",cats; [2],+34.21 ± 0.6 %
same,LD50/ED50 (antiarrhythmic index),aconitine arrhythmia; LD50 i.v. / ED50 aconitine arrhythmia,"26,2"
same,ED50,"aconitine arrhythmia; Rattus norvegicus, iv, read-out: Aconitine arrhythmia ED50",1.2 mg/kg
same,"activity relative to lidocaine, aconitine arrhythmia","aconitine arrhythmia; rats, higher than lidocaine","6,5 folds"
same,"activity relative to quinidine, aconitine arrhythmia","aconitine arrhythmia; rats, higher than quinidine","4,4 folds"
same,"effect on locomotor activity of C57B1/6 mice in open-field test, in words",C57B1/6 mice,without any changes in locomotor activity
same,Number of defecations,"Balb/c mice; 0.1 mg/kg i.p., M ± mx",0.1 ± 0.1
same,Peripheral activity (crossings),Balb/c mice; [3],15.1 ± 9.0
same,Total activity,Balb/c mice; [3],15.1 ± 9.0
same,Peripheral activity (crossings),Balb/c mice; [4],39.8 ± 7.3
same,Total activity,Balb/c mice; [4],39.8 ± 7.3
same,Peripheral activity (crossings),"Balb/c mice; 5.0 mg/kg i.p., M ± mx",44.1 ± 10.2
same,Total activity,"Balb/c mice; 5.0 mg/kg i.p., M ± mx",44.1 ± 10.2
same,Peripheral activity (crossings),Balb/c mice; [5],36.8 ± 5.0
same,Total activity,Balb/c mice; [5],36.8 ± 5.0
same,Peripheral activity (crossings),"Balb/c mice; 20.0 mg/kg i.p., M ± mx",17.8 ± 5.5
same,Total activity,"Balb/c mice; 20.0 mg/kg i.p., M ± mx",17.8 ± 5.5
same,"effect on the behavior (locomotor activity) of Balb/c mice in open-field test, in words","Balb/c mice; i.p., screening",able to activate the behavior of Balb/c mice
